ChEMBL document CHEMBL3870330, “Exploring the anti-biofilm activity of cinnamic acid derivatives in Candida albicans” (2016)
Converted amounts (≈) assume the structure as drawn.

Columns and labels:
Assay type in all cases: functional
Candida albicans [1] = assay: Antibiofilm activity against mature biofilm of Candida albicans ATCC 10231 after 24 hrs by XTT reduction assay
Candida albicans [2] = assay: Antibiofilm activity against Candida albicans ATCC 10231 after 24 hrs by XTT reduction assay
Candida albicans [3] = assay: Antifungal activity against planktonic cells of Candida albicans ATCC 10231 after 48 hrs by microdilution assay; settings: ATCC 10231, 48 h

Structure (SMILES)	MBIC50 (Candida albicans [1])	MBIC50 (Candida albicans [2])	MIC50 (Candida albicans [3])
Cc1ncc([N+](=O)[O-])n1CCOC(=O)/C=C/c1ccccc1	>128 µg/mL	>=32 - 128 ug ml-1	≥ 128 µg/mL
O=C(/C=C/c1ccccc1)OCc1ccc([N+](=O)[O-])o1	64 µg/mL	16 to 64 µg/mL	2 to 16 µg/mL (≈ 7.32 to 58.6 µM)
O=C(/C=C/c1ccccc1)N1CCN(c2ncccc2[N+](=O)[O-])CC1	>128 µg/mL	>128 µg/mL	> 128 µg/mL
O=C(/C=C/c1ccccc1)OCc1ccco1	>=128 ug ml-1	>=16 - 128 ug ml-1	64 to 128 µg/mL (≈ 280 to 561 µM)
O=C(/C=C/c1ccccc1)NCCCn1ccnc1	>128 µg/mL	>128 µg/mL	> 128 µg/mL
O=C(/C=C/c1ccccc1)OC(Cn1cncn1)(Cn1cncn1)c1ccc(F)cc1F	>32 to 128 µg/mL	4 to 128 µg/mL	0.5 to 64 µg/mL (≈ 1.15 to 147 µM)
O=C(/C=C/c1ccccc1)N1CCN(c2ccc([N+](=O)[O-])cc2)CC1	>32 to 128 µg/mL	>128 µg/mL	32 to 128 µg/mL (≈ 94.8 to 379 µM)
O=C(/C=C/c1ccccc1)OC(Cn1ccnc1)c1ccc(Cl)cc1Cl (stereo unspecified)	8 to 64 µg/mL	2 to 64 µg/mL	2 to 16 µg/mL (≈ 5.16 to 41.3 µM)
O=C(/C=C/c1ccccc1)NCCc1c[nH]c2ccccc12	>128 µg/mL	8 to 128 µg/mL	> 128 µg/mL
O=C(/C=C/c1ccccc1)Nc1nc2ccc([N+](=O)[O-])cc2s1	>=64 - 128 ug ml-1	>=64 - 128 ug ml-1	> 128 µg/mL
O=C(O)/C=C/c1ccccc1 [CINNAMIC ACID]	>128 µg/mL	>128 µg/mL	> 128 µg/mL
OC(Cn1cncn1)(Cn1cncn1)c1ccc(F)cc1F [FLUCONAZOLE]	>128 µg/mL	128 µg/mL	0.5 µg/mL (≈ 1.63 µM)
